{"source": "PubChem BioAssay AID248", "about": "(DTP/NCI, 2004)", "tested_on": "L1210 leukemia ip in BDF1 mice, survival T/C", "test": "NCI In Vivo Anticancer Drug Screen. Data for tumor model L1210 Leukemia (intraperitoneal) in B6D2F1 (BDF1) mice", "settings": "endpoint: mean survival time, higher = longer survival", "procedure,_shortened": "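Transplanted-tumor mice were given test agent; controls received vehicle only. Survival readings from the two groups were divided (treated over control).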", "key": {"[1]": {"settings": "dose: 100.0 mg/kg/injection, schedule: Q01DX009 (ip), vehicle: saline"}, "[2]": {"settings": "dose: 200.0 mg/kg/injection, schedule: Q01DX009 (ip), vehicle: saline"}, "[3]": {"settings": "dose: 100.0 mg/kg/injection, schedule: Q01DX001 (ip), vehicle: saline with Tween-80"}, "[4]": {"settings": "dose: 100.0 mg/kg/injection, schedule: Q01DX009 (ip), vehicle: saline with Tween-80"}, "[5]": {"settings": "dose: 200.0 mg/kg/injection, schedule: Q01DX009 (ip), vehicle: saline with Tween-80"}, "[6]": {"settings": "dose: 100.0 mg/kg/injection, schedule: Q01DX001 (ip), vehicle: saline"}, "[7]": {"settings": "dose: 200.0 mg/kg/injection, schedule: Q01DX001 (ip), vehicle: saline"}, "[8]": {"settings": "dose: 400.0 mg/kg/injection, schedule: Q01DX001 (ip), vehicle: saline"}}, "note": "Toxic doses and inconclusive results are not listed.", "data": [{"smiles": "COc1cccc(NC(=S)N(CCC#N)C2CCCCC2)c1", "values": [{"measurement": "T/C", "setting": "dose: 100.0 mg/kg/injection, schedule: Q04DX002 (ip), vehicle: saline with Tween-80", "result": "102 % of control"}, {"measurement": "T/C", "setting": "dose: 200.0 mg/kg/injection, schedule: Q04DX002 (ip), vehicle: saline with Tween-80", "result": "97 % of control"}, {"measurement": "T/C", "setting": "dose: 400.0 mg/kg/injection, schedule: Q04DX002 (ip), vehicle: saline with Tween-80", "result": "97 % of control"}]}, {"smiles": "C[Si](C)(C)OC/C=C\\CO[Si](C)(C)C", "values": [{"measurement": "T/C", "setting": "[1]", "result": "96 % of control"}, {"measurement": "T/C", "setting": "dose: 100.0 mg/kg/injection, schedule: Q04DX003 (ip), vehicle: alcohol", "result": "103 % of control"}, {"measurement": "T/C", "setting": "[2]", "result": "94 % of control"}, {"measurement": "T/C", "setting": "dose: 200.0 mg/kg/injection, schedule: Q04DX003 (ip), vehicle: alcohol", "result": "101 % of control"}, {"measurement": "T/C", "setting": "dose: 400.0 mg/kg/injection, schedule: Q04DX003 (ip), vehicle: alcohol", "result": "96 % of control"}]}, {"smiles": "O=C(Nc1ccc(S(=O)(=O)F)cc1)/C(=C\\c1ccc([N+](=O)[O-])cc1)c1cccc2ccccc12", "values": [{"measurement": "T/C", "setting": "[1]", "result": "91 % of control"}, {"measurement": "T/C", "setting": "[2]", "result": "99 % of control"}, {"measurement": "T/C", "setting": "dose: 400.0 mg/kg/injection, schedule: Q01DX009 (ip), vehicle: saline", "result": "94 % of control"}]}, {"smiles": "NS(=O)(=O)c1cc[n+]([O-])c2ccccc12", "values": [{"measurement": "T/C", "setting": "[3]", "result": "97 % of control"}, {"measurement": "T/C", "setting": "[4]", "result": "96 % of control"}, {"measurement": "T/C", "setting": "dose: 200.0 mg/kg/injection, schedule: Q01DX001 (ip), vehicle: saline with Tween-80", "result": "97 % of control"}, {"measurement": "T/C", "setting": "[5]", "result": "94 % of control"}, {"measurement": "T/C", "setting": "dose: 400.0 mg/kg/injection, schedule: Q01DX001 (ip), vehicle: saline with Tween-80", "result": "96 % of control"}]}, {"smiles": "Nc1ccc(C(=O)NCC(=O)O)cc1", "values": [{"measurement": "T/C", "setting": "dose: 100.0 mg/kg/injection, schedule: Q04DX002 (ip), vehicle: Klucel (hydroxypropylcellulose) (HPC)", "result": "93 % of control"}, {"measurement": "T/C", "setting": "dose: 200.0 mg/kg/injection, schedule: Q04DX002 (ip), vehicle: Klucel (hydroxypropylcellulose) (HPC)", "result": "104 % of control"}, {"measurement": "T/C", "setting": "dose: 400.0 mg/kg/injection, schedule: Q04DX002 (ip), vehicle: Klucel (hydroxypropylcellulose) (HPC)", "result": "100 % of control"}]}, {"smiles": "CCC(=O)N/N=C/C=N/NC(=O)c1ccncc1", "values": [{"measurement": "T/C", "setting": "dose: 75.0 mg/kg/injection, schedule: Q01DX001 (ip), vehicle: saline", "result": "96 % of control"}, {"measurement": "T/C", "setting": "dose: 100.0 mg/kg/injection, schedule: Q01DX001 (ip), vehicle: Klucel (hydroxypropylcellulose) (HPC)", "result": "97 % of control"}, {"measurement": "T/C", "setting": "dose: 100.0 mg/kg/injection, schedule: Q01DX009 (ip), vehicle: Klucel (hydroxypropylcellulose) (HPC)", "result": "93 % of control"}, {"measurement": "T/C", "setting": "dose: 150.0 mg/kg/injection, schedule: Q01DX001 (ip), vehicle: saline", "result": "99 % of control"}, {"measurement": "T/C", "setting": "dose: 200.0 mg/kg/injection, schedule: Q01DX001 (ip), vehicle: Klucel (hydroxypropylcellulose) (HPC)", "result": "101 % of control"}, {"measurement": "T/C", "setting": "dose: 200.0 mg/kg/injection, schedule: Q01DX009 (ip), vehicle: Klucel (hydroxypropylcellulose) (HPC)", "result": "100 % of control"}, {"measurement": "T/C", "setting": "dose: 300.0 mg/kg/injection, schedule: Q01DX001 (ip), vehicle: saline", "result": "92 % of control"}, {"measurement": "T/C", "setting": "dose: 400.0 mg/kg/injection, schedule: Q01DX001 (ip), vehicle: Klucel (hydroxypropylcellulose) (HPC)", "result": "94 % of control"}]}, {"smiles": "C(=C\\c1ccc2ccccc2n1)/c1ccccc1", "values": [{"measurement": "T/C", "setting": "dose: 50.0 mg/kg/injection, schedule: Q01DX009 (ip), vehicle: saline with Tween-80", "result": "119 % of control"}, {"measurement": "T/C", "setting": "[6]", "result": "103 % of control"}, {"measurement": "T/C", "setting": "[4]", "result": "94 % of control"}, {"measurement": "T/C", "setting": "[7]", "result": "106 % of control"}, {"measurement": "T/C", "setting": "[5]", "result": "109 % of control"}, {"measurement": "T/C", "setting": "[8]", "result": "109 % of control"}]}, {"smiles": "CC1(C)N=C(N)N=C(N)N1c1ccc(CCC(=O)CCl)cc1", "values": [{"measurement": "T/C", "setting": "dose: 25.0 mg/kg/injection, schedule: Q01DX001 (ip), vehicle: saline with Tween-80", "result": "92 % of control"}, {"measurement": "T/C", "setting": "dose: 50.0 mg/kg/injection, schedule: Q01DX001 (ip), vehicle: saline with Tween-80", "result": "95 % of control"}, {"measurement": "T/C", "setting": "[3]", "result": "95 % of control"}]}, {"smiles": "O=C(CN1C(=O)c2ccccc2C1=O)c1cccc(Br)c1", "values": [{"measurement": "T/C", "setting": "[6]", "result": "95 % of control"}, {"measurement": "T/C", "setting": "[7]", "result": "104 % of control"}, {"measurement": "T/C", "setting": "[8]", "result": "103 % of control"}]}, {"smiles": "COC1NC(=O)NC(=O)C1=[N+]=[N-]", "note": "(configuration not stated)", "values": [{"measurement": "T/C", "setting": "dose: 5.0 mg/kg/injection, schedule: Q04DX003 (ip), vehicle: saline with Tween-80", "result": "115 % of control"}, {"measurement": "T/C", "setting": "dose: 6.6 mg/kg/injection, schedule: Q01DX009 (ip), vehicle: saline with Tween-80", "result": "150 % of control"}, {"measurement": "T/C", "setting": "dose: 10.0 mg/kg/injection, schedule: Q01DX009 (ip), vehicle: saline with Tween-80", "result": "170 % of control"}, {"measurement": "T/C", "setting": "dose: 10.0 mg/kg/injection, schedule: Q04DX003 (ip), vehicle: saline with Tween-80", "result": "118 % of control"}, {"measurement": "T/C", "setting": "dose: 15.0 mg/kg/injection, schedule: Q01DX009 (ip), vehicle: saline with Tween-80", "result": "163 % of control"}]}, {"smiles": "COC(=O)c1ccccc1C(=O)c1ccccc1", "values": [{"measurement": "T/C", "setting": "dose: 100.0 mg/kg/injection, schedule: Q04DX003 (ip), vehicle: carboxymethylcellulose (CMC)", "result": "101 % of control"}, {"measurement": "T/C", "setting": "dose: 200.0 mg/kg/injection, schedule: Q04DX003 (ip), vehicle: carboxymethylcellulose (CMC)", "result": "102 % of control"}, {"measurement": "T/C", "setting": "dose: 400.0 mg/kg/injection, schedule: Q04DX003 (ip), vehicle: carboxymethylcellulose (CMC)", "result": "96 % of control"}]}]}
